For five compounds, melting point results are on record in patent US6548533B2, “Ureido substituted pyrrolidines” (Aventis Pharma Limited, priority 1999, dated 2003).

By melting point is commonly meant the temperature, or range, at which the solid turns liquid.

Each structure is given as a SMILES string.

Compound `COc1cc(CC(=O)Nc2ccc(C3CN(C(C)=O)CC3C(=O)O)cc2)ccc1NC(=O)Nc1ccccc1C` (centres unmarked) [Example 1, 1-Acetyl-4-(4-{2-[3-methoxy-4-(3-o-tolyl-ureido)-phenyl]-acetylamino}-phenyl)-pyrrolidine-3-carboxylic Acid] displayed a melting point of 242 °C.

On to `COc1cc(CC(=O)Nc2ccc(C3CN(C(=O)c4ccccc4)CC3C(=O)O)cc2)ccc1NC(=O)Nc1ccccc1C` (centres unmarked) [Example 2, 1-Benzoyl-4-(4-{2-[3-methoxy-4-(3-o-tolyl-ureido)-phenyl]-acetylamino}-phenyl)-pyrrolidine-3-carboxylic Acid], for which the melting point was 248 °C.

For `COc1cc(CC(=O)Nc2ccc(C3CN(C(=O)CCC(=O)O)CC3C(=O)O)cc2)ccc1NC(=O)Nc1ccccc1C` (centres unmarked) [Example 3, 1-(3-Carboxy-propionyl)-4-(4-{2-[3-methoxy-4-(3-o-tolyl-ureido)-phenyl]-acetylamino}-phenyl)-pyrrolidine-3-carboxylic Acid], the melting point worked out at 184 °C.

In the case of `COc1cc(CC(=O)Nc2ccc(C3C(C(=O)O)CCN3C(=O)c3ccccc3)cc2)ccc1NC(=O)Nc1ccccc1C` (centres unmarked) [Example 4, 1-Benzoyl-2-(4-{2-[3-methoxy-4-(3-o-tolyl-ureido)-phenyl]-acetylamino}-phenyl)-pyrrolidine-3-carboxylic Acid], the melting point was 155 °C (dec.).

Compound `COc1cc(CC(=O)Nc2ccc(C3CN(Cc4ccccc4)CC3C(=O)O)cc2)ccc1NC(=O)Nc1ccccc1C` (centres unmarked) [Example 5, 1-Benzyl-4-(4-{2-[3-methoxy-4-(3-o-tolyl-ureido)-phenyl]-acetylamino}-phenyl)-pyrrolidine-3-carboxylic Acid] gave a melting point of 255 °C.
